Reference: the kinase profiling compilation of Christmann-Franck et al. (2016)
Where “and” joins values, the source holds several entries; their conditions need not be identical. Equal values may be shown once.

Experiments:
Assay in all cases: radiometric filter-binding kinase assay, Kinase HotSpot
Details in all cases: compound 0.5 µM; ATP 10 µM
ABL2 (human) = ABL2 (human) (UniProt P42684)
AKT1 (human) = AKT1 (human) (UniProt P31749)
AURKA (human) = AURKA (human) (UniProt O14965)
BRSK2 (human) = BRSK2 (human) (UniProt Q8IWQ3)
CAMK4 (human) = CAMK4 (human) (UniProt Q16566)
CAMKK1 (human) = CAMKK1 (human) (UniProt Q8N5S9)
CAMKK2 (human) = CAMKK2 (human) (UniProt Q96RR4)
CDK1 CCNA2 (human) = CDK1 CCNA2 (human) (UniProt P06493+P20248)
CDK3 CCNE1 (human) = CDK3 CCNE1 (human) (UniProt Q00526+P24864)
DCLK2 (human) = DCLK2 (human) (UniProt Q8N568)
DYRK1B (human) = DYRK1B (human) (UniProt Q9Y463)
IGF1R (human) = IGF1R (human) (UniProt P08069)
IKBKB (human) = IKBKB (human) (UniProt O14920)
JAK3 JH1 JH2 (human) = JAK3 JH1 JH2 (human) (UniProt P52333)
LYN (human) = LYN (human) (UniProt P07948)
MAP3K14 (human) = MAP3K14 (human) (UniProt Q99558)
MAPK9 (human) = MAPK9 (human) (UniProt P45984)
MAPKAPK5 (human) = MAPKAPK5 (human) (UniProt Q8IW41)
MARK1 (human) = MARK1 (human) (UniProt Q9P0L2)
MET (human) = MET (human) (UniProt P08581)
NEK1 (human) = NEK1 (human) (UniProt Q96PY6)
NTRK1 (human) = NTRK1 (human) (UniProt P04629)
OXSR1 (human) = OXSR1 (human) (UniProt O95747)
PAK2 (human) = PAK2 (human) (UniProt Q13177)
PAK4 (human) = PAK4 (human) (UniProt O96013)
PAK6 (human) = PAK6 (human) (UniProt Q9NQU5)
PDPK1 (human) = PDPK1 (human) (UniProt O15530)
PRKCA (human) = PRKCA (human) (UniProt P17252)
PRKCB2 (human) = PRKCB2 (human) (UniProt P05771)
PRKCH (human) = PRKCH (human) (UniProt P24723)
PTK6 (human) = PTK6 (human) (UniProt Q13882)
RIPK2 (human) = RIPK2 (human) (UniProt O43353)
RPS6KA3 KD1 KD2 (human) = RPS6KA3 KD1 KD2 (human) (UniProt P51812)
RPS6KB1 (human) = RPS6KB1 (human) (UniProt P23443)
SRPK3 (human) = SRPK3 (human) (UniProt Q9UPE1)
STK16 (human) = STK16 (human) (UniProt O75716)
STK38 (human) = STK38 (human) (UniProt Q15208)
SYK (human) = SYK (human) (UniProt P43405)
TXK (human) = TXK (human) (UniProt P42681)
[1] = target: TYK2 JH1 catalytic (human) (UniProt P29597)
ULK3 (human) = ULK3 (human) (UniProt Q6PHR2)
ZAP70 (human) = ZAP70 (human) (UniProt P43403)

Sequence of LYN (human) (P07948 whole entry, looked up): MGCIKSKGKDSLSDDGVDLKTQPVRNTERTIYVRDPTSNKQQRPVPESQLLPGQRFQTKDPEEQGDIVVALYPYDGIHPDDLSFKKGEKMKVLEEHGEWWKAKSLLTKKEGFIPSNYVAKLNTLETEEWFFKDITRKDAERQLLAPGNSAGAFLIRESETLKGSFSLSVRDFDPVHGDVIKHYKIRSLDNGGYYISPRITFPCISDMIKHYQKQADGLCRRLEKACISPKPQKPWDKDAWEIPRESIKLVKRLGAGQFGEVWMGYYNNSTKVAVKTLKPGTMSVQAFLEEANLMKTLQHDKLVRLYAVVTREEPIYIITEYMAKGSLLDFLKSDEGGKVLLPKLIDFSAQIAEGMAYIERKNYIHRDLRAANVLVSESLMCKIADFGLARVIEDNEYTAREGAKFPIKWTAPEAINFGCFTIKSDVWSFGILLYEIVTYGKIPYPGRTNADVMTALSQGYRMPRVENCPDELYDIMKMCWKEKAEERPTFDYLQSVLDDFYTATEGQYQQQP
Sequence of MAP3K14 (human) (Q99558 whole entry, looked up): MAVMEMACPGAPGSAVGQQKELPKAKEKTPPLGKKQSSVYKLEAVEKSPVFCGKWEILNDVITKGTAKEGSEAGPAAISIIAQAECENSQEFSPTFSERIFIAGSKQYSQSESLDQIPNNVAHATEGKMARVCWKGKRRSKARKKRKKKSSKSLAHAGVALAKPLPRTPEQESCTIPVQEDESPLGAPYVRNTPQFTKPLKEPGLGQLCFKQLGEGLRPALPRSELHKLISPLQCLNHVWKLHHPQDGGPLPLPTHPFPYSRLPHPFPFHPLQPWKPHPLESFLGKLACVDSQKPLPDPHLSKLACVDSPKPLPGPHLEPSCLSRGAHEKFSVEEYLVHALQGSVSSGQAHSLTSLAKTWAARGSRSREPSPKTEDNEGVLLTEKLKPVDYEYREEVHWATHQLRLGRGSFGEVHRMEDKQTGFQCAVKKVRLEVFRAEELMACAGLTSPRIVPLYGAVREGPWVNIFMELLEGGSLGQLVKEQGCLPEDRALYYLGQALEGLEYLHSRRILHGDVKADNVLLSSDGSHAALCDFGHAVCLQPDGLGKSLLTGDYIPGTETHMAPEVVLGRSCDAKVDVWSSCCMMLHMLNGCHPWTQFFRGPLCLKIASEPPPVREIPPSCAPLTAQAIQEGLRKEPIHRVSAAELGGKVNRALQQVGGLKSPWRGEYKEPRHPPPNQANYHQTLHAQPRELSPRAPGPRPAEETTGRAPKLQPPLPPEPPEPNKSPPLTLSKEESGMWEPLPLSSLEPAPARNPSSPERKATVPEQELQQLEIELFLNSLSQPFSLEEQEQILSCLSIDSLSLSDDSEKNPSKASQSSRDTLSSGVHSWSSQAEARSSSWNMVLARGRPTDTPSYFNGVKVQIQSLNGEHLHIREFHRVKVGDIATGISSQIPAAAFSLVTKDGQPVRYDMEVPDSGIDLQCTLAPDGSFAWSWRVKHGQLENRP
Sequence of CAMKK2 (human) (Q96RR4 whole entry, looked up): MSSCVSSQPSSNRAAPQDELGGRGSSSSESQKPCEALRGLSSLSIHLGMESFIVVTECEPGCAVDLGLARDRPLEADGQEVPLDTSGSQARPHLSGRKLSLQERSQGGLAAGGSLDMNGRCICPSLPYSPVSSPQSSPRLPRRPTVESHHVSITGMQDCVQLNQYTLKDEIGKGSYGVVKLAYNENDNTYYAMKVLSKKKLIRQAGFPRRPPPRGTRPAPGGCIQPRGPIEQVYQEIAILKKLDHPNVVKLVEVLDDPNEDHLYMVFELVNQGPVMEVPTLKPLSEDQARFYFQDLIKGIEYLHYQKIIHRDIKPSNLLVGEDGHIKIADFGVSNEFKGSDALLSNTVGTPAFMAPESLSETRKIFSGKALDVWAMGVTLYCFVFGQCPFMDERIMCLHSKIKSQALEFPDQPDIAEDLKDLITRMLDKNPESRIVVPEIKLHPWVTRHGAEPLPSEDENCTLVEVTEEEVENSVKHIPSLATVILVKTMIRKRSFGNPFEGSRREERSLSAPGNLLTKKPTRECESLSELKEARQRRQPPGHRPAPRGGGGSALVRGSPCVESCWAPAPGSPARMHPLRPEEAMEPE
Sequence of DYRK1B (human) (Q9Y463 whole entry, looked up): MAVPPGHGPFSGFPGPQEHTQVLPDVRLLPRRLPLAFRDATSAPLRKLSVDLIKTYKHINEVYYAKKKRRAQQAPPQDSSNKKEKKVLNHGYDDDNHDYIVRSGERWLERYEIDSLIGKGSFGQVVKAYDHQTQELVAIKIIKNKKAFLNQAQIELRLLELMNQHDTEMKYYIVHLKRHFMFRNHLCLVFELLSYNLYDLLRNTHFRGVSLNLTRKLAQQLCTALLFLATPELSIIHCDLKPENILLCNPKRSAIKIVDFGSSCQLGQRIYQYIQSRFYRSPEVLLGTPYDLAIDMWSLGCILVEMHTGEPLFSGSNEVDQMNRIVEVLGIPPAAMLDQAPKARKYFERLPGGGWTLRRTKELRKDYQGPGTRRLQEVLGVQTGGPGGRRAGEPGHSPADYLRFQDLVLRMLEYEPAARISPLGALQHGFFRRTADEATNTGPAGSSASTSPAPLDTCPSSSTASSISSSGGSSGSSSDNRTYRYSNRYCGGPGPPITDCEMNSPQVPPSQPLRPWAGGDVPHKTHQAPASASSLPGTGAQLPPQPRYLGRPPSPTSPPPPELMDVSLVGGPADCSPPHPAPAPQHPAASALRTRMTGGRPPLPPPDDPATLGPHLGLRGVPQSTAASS
Sequence of AURKA (human) (O14965 whole entry, looked up): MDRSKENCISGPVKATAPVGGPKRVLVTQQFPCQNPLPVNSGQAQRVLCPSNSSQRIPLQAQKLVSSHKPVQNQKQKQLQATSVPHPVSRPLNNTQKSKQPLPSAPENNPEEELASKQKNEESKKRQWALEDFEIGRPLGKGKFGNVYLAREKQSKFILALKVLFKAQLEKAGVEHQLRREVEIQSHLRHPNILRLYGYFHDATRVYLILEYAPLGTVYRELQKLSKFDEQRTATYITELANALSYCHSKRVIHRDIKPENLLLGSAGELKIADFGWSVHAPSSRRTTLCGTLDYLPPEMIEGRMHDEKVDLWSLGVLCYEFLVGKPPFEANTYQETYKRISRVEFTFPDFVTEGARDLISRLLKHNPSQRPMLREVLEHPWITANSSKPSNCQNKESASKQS
Sequence of RPS6KB1 (human) (P23443 whole entry, looked up): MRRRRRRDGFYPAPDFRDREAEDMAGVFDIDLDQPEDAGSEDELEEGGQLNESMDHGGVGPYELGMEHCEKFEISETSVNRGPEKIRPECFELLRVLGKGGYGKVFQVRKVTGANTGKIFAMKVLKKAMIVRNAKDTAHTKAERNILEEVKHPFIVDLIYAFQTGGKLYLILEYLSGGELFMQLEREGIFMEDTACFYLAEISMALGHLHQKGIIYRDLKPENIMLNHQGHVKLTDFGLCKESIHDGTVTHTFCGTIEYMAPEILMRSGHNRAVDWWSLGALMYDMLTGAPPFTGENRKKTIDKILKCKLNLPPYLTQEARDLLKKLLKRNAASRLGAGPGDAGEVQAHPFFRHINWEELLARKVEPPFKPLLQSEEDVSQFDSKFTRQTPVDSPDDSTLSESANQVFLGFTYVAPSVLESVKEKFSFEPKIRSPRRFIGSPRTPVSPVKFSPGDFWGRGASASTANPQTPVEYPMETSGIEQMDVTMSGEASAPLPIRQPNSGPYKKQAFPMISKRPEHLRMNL
Sequence of CDK1 CCNA2 (human) (P06493 whole entry, looked up): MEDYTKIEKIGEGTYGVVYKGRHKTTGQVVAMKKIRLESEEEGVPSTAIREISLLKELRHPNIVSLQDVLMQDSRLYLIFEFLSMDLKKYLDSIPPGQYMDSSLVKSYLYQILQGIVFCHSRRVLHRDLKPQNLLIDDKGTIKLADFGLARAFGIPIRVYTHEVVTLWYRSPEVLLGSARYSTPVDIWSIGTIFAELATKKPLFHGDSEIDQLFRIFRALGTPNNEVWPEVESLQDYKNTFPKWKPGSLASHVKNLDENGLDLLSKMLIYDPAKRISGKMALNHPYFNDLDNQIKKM
Sequence of CDK1 CCNA2 (human) (P20248 whole entry, looked up): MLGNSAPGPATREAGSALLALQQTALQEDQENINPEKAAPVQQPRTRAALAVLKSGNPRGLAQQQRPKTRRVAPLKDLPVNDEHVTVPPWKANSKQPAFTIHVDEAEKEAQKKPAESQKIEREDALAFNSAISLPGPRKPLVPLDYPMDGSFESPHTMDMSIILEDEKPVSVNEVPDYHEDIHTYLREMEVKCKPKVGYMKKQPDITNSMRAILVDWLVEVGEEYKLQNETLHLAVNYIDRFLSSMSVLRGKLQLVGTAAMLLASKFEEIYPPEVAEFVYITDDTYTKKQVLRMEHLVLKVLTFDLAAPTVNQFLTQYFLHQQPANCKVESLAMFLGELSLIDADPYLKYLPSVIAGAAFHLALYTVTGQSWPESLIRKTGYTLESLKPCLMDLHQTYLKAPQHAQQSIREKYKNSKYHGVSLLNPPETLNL
Sequence of ULK3 (human) (Q6PHR2 whole entry, looked up): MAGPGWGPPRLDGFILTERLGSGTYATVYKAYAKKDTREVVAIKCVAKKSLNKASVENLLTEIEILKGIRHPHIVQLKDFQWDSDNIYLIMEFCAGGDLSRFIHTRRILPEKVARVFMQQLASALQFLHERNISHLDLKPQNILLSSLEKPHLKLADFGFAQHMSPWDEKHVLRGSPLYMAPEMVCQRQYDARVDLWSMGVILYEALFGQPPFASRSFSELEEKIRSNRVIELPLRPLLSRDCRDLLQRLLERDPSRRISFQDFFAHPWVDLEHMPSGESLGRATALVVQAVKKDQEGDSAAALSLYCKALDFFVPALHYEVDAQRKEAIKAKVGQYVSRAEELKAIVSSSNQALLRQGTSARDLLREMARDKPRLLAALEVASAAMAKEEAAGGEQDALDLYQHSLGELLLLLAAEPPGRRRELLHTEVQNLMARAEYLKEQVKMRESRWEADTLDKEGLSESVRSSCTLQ

Compound `CNc1cc2c(Nc3cccc(Br)c3)ncnc2cn1` has a residual activity (ABL2 (human)) of 84.8%, a residual activity (AKT1 (human)) of 98.8% and a residual activity (AURKA (human)) of 85.1%. For the same compound, the residual activity (BRSK2 (human)) was 90.9%, the residual activity (CAMK4 (human)) was 104% and the residual activity (CAMKK1 (human)) was 92.6%. For the same compound, the residual activity (CAMKK2 (human)) was 80%, the residual activity (CDK1 CCNA2 (human)) was 86.5% and the residual activity (CDK3 CCNE1 (human)) was 80.2%. It also gave a residual activity (DCLK2 (human)) of 90.4%, a residual activity (DYRK1B (human)) of 92.3% and a residual activity (IGF1R (human)) of 115%. For the same compound, the residual activity (IKBKB (human)) was 98.2%, the residual activity (JAK3 JH1 JH2 (human)) was 103% and the residual activity (LYN (human)) was 63.9% and 81.9%. It also gave a residual activity (MAP3K14 (human)) of 126%, a residual activity (MAPK9 (human)) of 96.5% and a residual activity (MAPKAPK5 (human)) of 99.3%. For the same compound, the residual activity (MARK1 (human)) was 96.1%, the residual activity (MET (human)) was 106% and the residual activity (NEK1 (human)) was 70.3%. For the same compound, the residual activity (NTRK1 (human)) was 95.9%, the residual activity (OXSR1 (human)) was 88.3% and the residual activity (PAK2 (human)) was 92.7%. It also gave a residual activity (PAK4 (human)) of 93%, a residual activity (PAK6 (human)) of 96.6% and a residual activity (PDPK1 (human)) of 97.7%. It also gave a residual activity (PRKCA (human)) of 101%, a residual activity (PRKCB2 (human)) of 102% and a residual activity (PRKCH (human)) of 95.7%. The residual activity (PTK6 (human)) was 54.4%, the residual activity (RIPK2 (human)) was 69.2% and the residual activity (RPS6KA3 KD1 KD2 (human)) was 86.6%. The residual activity (RPS6KB1 (human)) was 97.4%, the residual activity (SRPK3 (human)) was 97.1% and the residual activity (STK16 (human)) was 98.6%. It also gave a residual activity (STK38 (human)) of 98.5%, a residual activity (SYK (human)) of 95.3% and a residual activity (TXK (human)) of 79.9%. It also gave a residual activity [1] of 80.8%, a residual activity (ULK3 (human)) of 95.8% and a residual activity (ZAP70 (human)) of 99.1%.

With `Nc1ncnc2[nH]nc(Nc3ccc(F)cc3)c12` the residual activity (ABL2 (human)) was 82.3%, the residual activity (AKT1 (human)) was 93.3% and the residual activity (AURKA (human)) was 92.3%. It also gave a residual activity (BRSK2 (human)) of 60.6%, a residual activity (CAMK4 (human)) of 103% and a residual activity (CAMKK1 (human)) of 101%. For the same compound, the residual activity (CAMKK2 (human)) was 83.6%, the residual activity (CDK1 CCNA2 (human)) was 93% and the residual activity (CDK3 CCNE1 (human)) was 104%. For the same compound, the residual activity (DCLK2 (human)) was 99.5%, the residual activity (DYRK1B (human)) was 99.2% and the residual activity (IGF1R (human)) was 104%. For the same compound, the residual activity (IKBKB (human)) was 105%, the residual activity (JAK3 JH1 JH2 (human)) was 102% and the residual activity (LYN (human)) was 89.7% and 90.3%. The residual activity (MAP3K14 (human)) was 111%, the residual activity (MAPK9 (human)) was 103% and the residual activity (MAPKAPK5 (human)) was 80.9%. The residual activity (MARK1 (human)) was 93.8%, the residual activity (MET (human)) was 124% and the residual activity (NEK1 (human)) was 94%. The residual activity (NTRK1 (human)) was 109%, the residual activity (OXSR1 (human)) was 110% and the residual activity (PAK2 (human)) was 103%. The residual activity (PAK4 (human)) was 104%, the residual activity (PAK6 (human)) was 109% and the residual activity (PDPK1 (human)) was 102%. The residual activity (PRKCA (human)) was 98%, the residual activity (PRKCB2 (human)) was 105% and the residual activity (PRKCH (human)) was 84.7%. The residual activity (PTK6 (human)) was 68.3%, the residual activity (RIPK2 (human)) was 68.7% and the residual activity (RPS6KA3 KD1 KD2 (human)) was 89.8%. It also gave a residual activity (RPS6KB1 (human)) of 94.3%, a residual activity (SRPK3 (human)) of 91.5% and a residual activity (STK16 (human)) of 108%. The residual activity (STK38 (human)) was 101%, the residual activity (SYK (human)) was 97.4% and the residual activity (TXK (human)) was 67.6%. For the same compound, the residual activity [1] was 92.3%, the residual activity (ULK3 (human)) was 92.8% and the residual activity (ZAP70 (human)) was 95.2%.
